# PMC4471902, “Block of NMDA receptor channels by endogenous neurosteroids: implications for the agonist induced conformational states of the channel vestibule” (Scientific Reports, 2015)
# Counter-ions that a name gives are not always drawn.
# Tests used:
# [1] = biological target: T1, GluN1-4a(F484A)/eGFP-GluN3A receptor (Rattus norvegicus, UniProt P35439+Q9R1M7, F484A); test: Whole-cell patch-clamp of glycine-activated GluN1-4a(F484A)/eGFP-GluN3A receptor responses in HEK293 cells; format: cell-based
# T1 construct: eGFP; expressed in transfected cells; host or cells: HEK293
# From the text: (§1) Human embryonic kidney (HEK293) cells were transfected with expression vectors containing: GluN1–1a (GenBank accession number U08261)[52]; GluN2B (GenBank accession number M91562); GluN1-4a(F484A), (generous gift from Dr. J. J. Woodward)[53] (Smothers & Woodward, 2009); GluN3A (generous gift from Dr. S. A. Lipton)[54] (GenBank accession number NM_138546); GluN1ΔN with deleted 354 amino acids in the NTD (32 to 386); GluN1ΔC with an introduced stop codon in 838 of the CTD GluN2BΔN) with deleted 354 amino acids in the NTD (32 to 386); GluN2BΔC with an introduced stop codon in 844 of the CTD[55]; GluR0 (GenBank accession number Synechocystis PCC 6803) (generous gift from Dr. M. L. Mayer)[18]; and green fluorescent protein (GFP) (pQBI 25, Takara, Tokyo, Japan) genes, as described previously. The Quick-Change site-directed mutagenesis kit (Agilent Technologies, Santa Clara, CA, USA) was used to generate specific point mutations in the M1/M3 region according to the manufacturer’s instructions using manually designed primers purchased from Sigma. Modified DNA plasmids were transformed into competent XL10-Gold E.coli cells, positive clones were selected, and isolated DNA was sequenced. […]
# (§2) The IC50 was determined from a single dose of a steroid using the formula [drawing 1] where I is the relative degree of inhibition and [steroid] is the steroid concentration used. […]
# [2] = biological target: T2, GluN2B(Y646A) (Rattus norvegicus, UniProt P35439+Q00960, Y646A); test: Whole-cell patch-clamp of GluN1/GluN2B(Y646A) receptor responses in HEK293 cells; format: cell-based
# T2 construct: expressed in transfected cells; host or cells: HEK293
# From the text: as §1, §2
# T1 sequence (Q9R1M7 24-1135, other chains not shown): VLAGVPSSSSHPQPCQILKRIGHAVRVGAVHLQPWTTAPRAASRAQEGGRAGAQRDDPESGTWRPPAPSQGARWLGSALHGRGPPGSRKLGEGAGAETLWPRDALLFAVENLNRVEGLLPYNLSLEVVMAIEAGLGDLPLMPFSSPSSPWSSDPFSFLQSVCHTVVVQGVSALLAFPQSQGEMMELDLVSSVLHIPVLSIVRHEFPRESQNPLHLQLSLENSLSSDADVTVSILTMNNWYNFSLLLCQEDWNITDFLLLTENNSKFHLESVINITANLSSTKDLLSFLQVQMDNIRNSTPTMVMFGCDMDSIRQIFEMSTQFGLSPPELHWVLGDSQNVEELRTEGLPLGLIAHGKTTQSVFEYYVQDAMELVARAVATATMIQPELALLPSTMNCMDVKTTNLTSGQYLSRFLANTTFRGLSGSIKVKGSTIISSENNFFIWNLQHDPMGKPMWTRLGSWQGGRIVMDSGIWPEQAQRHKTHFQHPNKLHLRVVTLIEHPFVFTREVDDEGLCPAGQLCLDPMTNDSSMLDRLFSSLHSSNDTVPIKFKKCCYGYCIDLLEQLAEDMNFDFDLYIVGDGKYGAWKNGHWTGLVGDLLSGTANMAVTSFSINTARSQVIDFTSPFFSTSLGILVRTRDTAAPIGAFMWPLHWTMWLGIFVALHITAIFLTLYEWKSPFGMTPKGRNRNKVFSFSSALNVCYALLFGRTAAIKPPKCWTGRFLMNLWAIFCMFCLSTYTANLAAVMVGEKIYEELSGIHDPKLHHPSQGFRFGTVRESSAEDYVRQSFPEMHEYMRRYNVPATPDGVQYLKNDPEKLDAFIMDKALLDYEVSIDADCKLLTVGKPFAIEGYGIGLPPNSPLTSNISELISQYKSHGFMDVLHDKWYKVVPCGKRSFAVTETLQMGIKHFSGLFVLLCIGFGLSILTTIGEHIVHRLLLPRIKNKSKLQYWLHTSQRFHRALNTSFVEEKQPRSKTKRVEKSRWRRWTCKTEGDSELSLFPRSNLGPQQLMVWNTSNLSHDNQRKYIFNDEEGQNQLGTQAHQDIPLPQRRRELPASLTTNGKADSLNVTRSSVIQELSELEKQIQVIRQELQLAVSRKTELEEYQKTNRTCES
# T2 sequence (Q00960 27-1482 Y646A, other chains not shown): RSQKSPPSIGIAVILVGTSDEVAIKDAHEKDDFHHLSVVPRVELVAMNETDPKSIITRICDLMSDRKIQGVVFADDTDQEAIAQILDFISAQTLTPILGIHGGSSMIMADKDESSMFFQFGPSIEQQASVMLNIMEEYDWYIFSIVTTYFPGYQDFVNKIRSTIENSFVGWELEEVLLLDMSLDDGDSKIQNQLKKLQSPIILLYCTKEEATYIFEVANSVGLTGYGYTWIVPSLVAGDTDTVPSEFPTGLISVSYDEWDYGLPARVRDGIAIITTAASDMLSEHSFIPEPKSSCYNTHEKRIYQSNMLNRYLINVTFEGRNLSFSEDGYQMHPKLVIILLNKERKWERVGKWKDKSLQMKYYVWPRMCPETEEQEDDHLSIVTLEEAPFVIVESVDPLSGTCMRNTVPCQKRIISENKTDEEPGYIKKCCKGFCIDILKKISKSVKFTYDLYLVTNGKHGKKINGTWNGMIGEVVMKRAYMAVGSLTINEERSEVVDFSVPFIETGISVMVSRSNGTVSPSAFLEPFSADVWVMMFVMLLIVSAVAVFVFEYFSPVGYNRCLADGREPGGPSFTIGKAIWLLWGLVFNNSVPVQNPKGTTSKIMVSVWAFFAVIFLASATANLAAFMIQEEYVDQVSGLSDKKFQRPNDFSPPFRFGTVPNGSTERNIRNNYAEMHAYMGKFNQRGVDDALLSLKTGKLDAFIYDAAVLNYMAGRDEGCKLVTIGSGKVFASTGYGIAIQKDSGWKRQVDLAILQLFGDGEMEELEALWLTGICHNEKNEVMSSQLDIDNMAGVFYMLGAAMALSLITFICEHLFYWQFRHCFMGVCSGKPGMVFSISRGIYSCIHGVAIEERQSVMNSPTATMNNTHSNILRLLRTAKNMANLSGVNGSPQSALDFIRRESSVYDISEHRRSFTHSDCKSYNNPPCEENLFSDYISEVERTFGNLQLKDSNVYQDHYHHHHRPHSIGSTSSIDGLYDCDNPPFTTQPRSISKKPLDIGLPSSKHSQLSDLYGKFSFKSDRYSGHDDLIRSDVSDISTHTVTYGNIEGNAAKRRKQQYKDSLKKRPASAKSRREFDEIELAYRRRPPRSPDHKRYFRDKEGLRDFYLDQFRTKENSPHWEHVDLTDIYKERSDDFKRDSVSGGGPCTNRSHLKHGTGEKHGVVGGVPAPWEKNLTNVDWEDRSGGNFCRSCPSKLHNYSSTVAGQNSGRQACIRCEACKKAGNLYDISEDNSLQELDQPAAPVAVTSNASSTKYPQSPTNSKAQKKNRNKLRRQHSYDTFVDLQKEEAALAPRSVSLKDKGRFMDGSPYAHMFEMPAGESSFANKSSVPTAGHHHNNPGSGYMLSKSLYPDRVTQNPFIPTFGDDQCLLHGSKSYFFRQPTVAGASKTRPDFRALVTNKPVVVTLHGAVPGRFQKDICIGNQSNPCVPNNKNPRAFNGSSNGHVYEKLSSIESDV
compound,measurement,setting,value
"CC(=O)[C@H]1CC[C@H]2[C@@H]3CC[C@@H]4C[C@H](OS(=O)(=O)O)CC[C@]4(C)[C@H]3CC[C@]12C [PA-S, 20-oxo-5β-pregnan-3α-yl sulfate]","degree of PA-S inhibition, mutated vs WT GluN1-4a subunit in combination with GluN3A",[1],no significant difference
same,IC50,"[1]; glycine-activated, PA-S 50 µM",27 ± 3 µM
same,IC50,[2],4.3 ± 0.7 µM
